Assays:
Format in all cases: in vivo
[1] = system: Green Peach Aphid (Myzus Persicae); experiment: Green peach aphid test on dipped pepper plants; conditions: 120 h, pepper plant leaves dipped, after 5 days, read-out: mortality in comparison with untreated controls
Method: • The soybean bean cyst nematode culture was maintained in a greenhouse and soybean eggs and J2 larvae were obtained for testing by dislodging soybean cysts from the roots with a sieve. The cysts were broken to release the eggs and the eggs were maintained in water. The eggs hatched after 5-7 days at 28° C. To microtiter plates containing about 150 μg of compound, 80:20 acetone was added to each well and the solution was mixed to obtain the desired compound concentration. The nematode solution was added to the plate. The plates were then sealed and placed in an incubator at 27° C. and 50% (+/−2%) relative humidity. […] II Activity Against Insects II.1 Cotton Aphid (Aphis Gossypii) • The active compounds were formulated in 50:50 acetone:water and 100 ppm Kinetics surfactant. • Cotton plants at the cotyledon stage (one plant per pot) were infested by placing a heavily infested leaf from the main colony on top of each cotyledon. The aphids were allowed to transfer to the host plant overnight, and the leaf used to transfer the aphids was removed. The cotyledons were dipped in the test solution and allowed to dry. […] II.2 Green Peach Aphid (Myzus Persicae) • The active compounds were formulated in 50:50 acetone:water and 100 ppm Kinetic® surfactant. • Pepper plants in the 2nd leaf-pair stage (variety ‘California Wonder’) were infested with approximately 40 laboratory-reared aphids by placing infested leaf sections on top of the test plants. The leaf sections were removed after 24 hr. The leaves of the intact plants were dipped into gradient solutions of the test compound and allowed to dry. Test plants were maintained under fluorescent light (24 hour photoperiod) at about 25° C. and 20-40% relative humidity. […] II.3 Bean Aphid (Aphis Fabae) • The active compounds were formulated in 50:50 acetone:water and 100 ppm Kinetics surfactant. • Nasturtium plants grown in Metro mix in the 1st leaf-pair stage (variety ‘Mixed Jewle’) were infested with approximately 2-30 laboratory-reared aphids by placing infested cut plants on top of the test plants. The cut plants were removed after 24 hr. […]

[2] = system: Cotton Aphid (Aphis Gossypii); experiment: Cotton aphid test on dipped cotton cotyledons; conditions: 120 h, after 5 days, read-out: mortality in comparison with untreated controls
Method: (§1) • The soybean bean cyst nematode culture was maintained in a greenhouse and soybean eggs and J2 larvae were obtained for testing by dislodging soybean cysts from the roots with a sieve. The cysts were broken to release the eggs and the eggs were maintained in water. The eggs hatched after 5-7 days at 28° C. To microtiter plates containing about 150 μg of compound, 80:20 acetone was added to each well and the solution was mixed to obtain the desired compound concentration. The nematode solution was added to the plate. The plates were then sealed and placed in an incubator at 27° C. and 50% (+/−2%) relative humidity. […] II Activity Against Insects II.1 Cotton Aphid (Aphis Gossypii) • The active compounds were formulated in 50:50 acetone:water and 100 ppm Kinetics surfactant. • Cotton plants at the cotyledon stage (one plant per pot) were infested by placing a heavily infested leaf from the main colony on top of each cotyledon. The aphids were allowed to transfer to the host plant overnight, and the leaf used to transfer the aphids was removed. The cotyledons were dipped in the test solution and allowed to dry. […]

[3] = system: Root-Knot Nematode (Meloidogyne incognita); experiment: Root-knot nematode microtiter plate mortality test; conditions: after 72 hours, J2 nematodes, immobility regarded as mortality, read-out: mortality compared to untreated controls
Method: • Test compounds were prepared and formulated into aqueous formulations using acetone. The formulations were tested using root knot nematode (2nd instar) and soybean cyst nematode (2nd instar) as target species. I.1 Test Procedures for Root-Knot Nematode (Meloidogyne incognita): • Tomato plants (var. Bonny Best) were grown in the greenhouse in plastic tubs (4 to 6 plants per tub). The plants and soil (a 50:50 mixture of sand and “New Egypt” sandy loam) were infested with M. incognita J2 (to establish the “in-house” colony, M. incognita J2 were initially acquired from Auburn University). The plants were kept pruned and were used on an “as needed” basis. The tomato plants were kept in the cylinder containing hydroponic solution and aerated until the nematodes were no longer present in the solution (usually about 60 days). The cultures were checked daily by eluting a small volume (approximately 20 ml) from the bottom of a funnel attached to the cylinder into a small crystallizing dish and observed using a binocular dissecting scope. […] These were counted by putting 25 μl of the nematode solution into a well of an unused well of an assay plate. […] After 72 hours, the population mortality was read, whereby immobility of nematodes was regarded as mortality.

[4] = system: Soybean Cyst Nematode (Heterodera Glycine); experiment: Soybean cyst nematode microtiter plate mortality test; conditions: after 72 hours, J2 larvae, immobility regarded as mortality, read-out: mortality compared to untreated controls
Method: I.2 Test Procedures for Soybean Cyst Nematode (Heterodera Glycine):
as §1

Structure (SMILES)	mortality at 300 ppm [1]	mortality at 100 ppm [3]	further results
Cl/C(=N\N=Cc1cc2ccccc2o1)c1cccs1 [Example 1]	> 75%		
CS/C(=N\N=Cc1cc2ccccc2o1)c1cccs1 [Example 2]			mortality at 300 ppm [2]: > 75%
CO/C(=N\N=Cc1cc2ccccc2o1)c1cccs1 [Example 4]		> 95%	
C/C(=N\N=Cc1cc2ccccc2o1)c1cccs1 [Example 5]	> 75%		
Cl/C(=N\N=CC=Cc1ccccc1)c1cccs1 [Example 11]			mortality at 100 ppm [4]: > 95%
C/C(=N\N=CC=Cc1ccccc1)c1cccs1 [Example 12]	> 75%	> 95%	
